Common to all, as to format: cell-based
The test system of test [1] is Human hair follicle dermal papilla cells. Description: DPC proliferation assay (MTT). To be noted: serum-free medium, 3 days incubation, absorbance 550 nm, FIGS. 1a, 1b. The protocol:
Human hair follicle dermal papilla cells were seeded at a density of 2×10^3 cells/well on 96-well plates, followed by incubation overnight. After changing into serum-free medium, the cells were treated with the peptides, followed by incubation for 3 days, and then the wells were treated with 4 mg/ml MTT solution, followed by reaction for 4 hours. The resulting formazan was solubilized with DNSO, and then the absorbance was measured at 550 nm using a microplate reader.

The test system of test [2] is β-catenin. As to the kind of experiment: β-Catenin activity test (western blotting). The conditions noted are these: human hair follicle dermal papilla cells, 15 and 30 minutes, nuclear and cytoplasmic proteins, FIGS. 2a, 2b. The protocol:
Human hair follicle dermal papilla cells were seeded at a density of 4×10^5 cells/well on 6-well plates, followed by incubation overnight. After changing into serum-free medium, the cells were treated with the peptides, followed by incubation for 15 and 30 minutes, and then the wells were harvested to isolate nuclear and cytoplasmic proteins. Western blotting was performed using β-catenin (Santa Cruz Biotechnology, USA) to compare β-catenin expression patterns.

Test [3] relates to GSK3β. Description: β-Catenin activity test: GSK3β phosphorylation. The conditions noted are these: human hair follicle dermal papilla cells, 15 and 30 minutes, western blotting; FIGS. 2a, 2b. (In general: In western blotting, separated proteins are transferred to a membrane and probed.)
For test [4], the system named is PI3K. As to the kind of experiment: PI3K western blotting. The conditions noted are these: human hair follicle dermal papilla cells, 15 and 30 minutes, FIGS. 3a, 3b. The protocol:
(§1) Human hair follicle dermal papilla cells were seeded at a density of 4×10^5 cells/well on 6-well plates, followed by incubation overnight. After changing into serum-free medium, the cells were treated with the peptides, followed by incubation for 15 and 30 minutes, and then the wells were harvested to prepare the cell lysate. Western blotting was performed using PI3K antibodies (Santa Cruz Biotechnology, USA) and phospho-ERK antibody (Cell Signaling Technology, USA) to compare protein expression patterns.

For test [5], the system named is ERK. Description: p-ERK western blotting. The conditions noted are these: human hair follicle dermal papilla cells, 15 and 30 minutes, FIGS. 3a, 3b. The protocol: as §1
Test [6] deals with Bcl-2. As to the kind of experiment: Bcl-2 western blotting. To be noted: human hair follicle dermal papilla cells, 24 hours, FIGS. 4a, 4b. The protocol:
(§2) Human hair follicle dermal papilla cells were seeded at a density of 4×10^5 cells/well on 6-well plate, followed by incubation overnight. After changing into serum-free medium, the cells were treated with the peptides, followed by incubation for 24 hours, and then the wells were harvested to prepare cell lysate. Western blotting was performed using Bcl-2 and Bax antibodies (Santa Cruz Biotechnology, USA) to compare protein expression patterns.

The subject of test [7] is Bax. Description: Bax western blotting. The conditions noted are these: human hair follicle dermal papilla cells, 24 hours, FIGS. 4a, 4b. The protocol:
as §2

For test [8], the system named is keratin-14. Description: Keratin-14 RT-PCR. The conditions noted are these: human hair follicle dermal papilla cells, 24 hours, FIGS. 5a, 5b. The protocol:
(§3) Human hair follicle dermal papilla cells were seeded at a density of 5×10^5 cells/well on 6-well plates, followed by incubation overnight. After changing into serum-free medium, the cells were treated with the peptides, followed by incubation for 24 hours, and then the wells were harvested to isolate RNA. After RNA quantification, cDNA synthesis was conducted using the cDNA synthesis kit (Intron, Korea), followed by PCR using PCR premix (Intron, Korea) and keratin-14 primers, and then electrophoresis was performed on 5% agarose gel to compare the mRNA expression level of the growth factor in respective sample treatment conditions.

Test [9] deals with VEGF. Description: VEGF RT-PCR. To be noted: human hair follicle dermal papilla cells, 24 hours, RT-PCR (mRNA); FIG. 6. The protocol: as §3, with “4×10^5” for “5×10^5”, “plate,” for “plates,”, “respective KGF and VEGF” for “keratin-14”, “levels” for “level”, “factors” for “factor”, “in” for “in respective”
The subject of test [10] is KGF. Description: KGF RT-PCR. The conditions noted are these: human hair follicle dermal papilla cells, 24 hours, RT-PCR (mRNA); FIG. 6. The protocol:
as §3, with “4×10^5” for “5×10^5”, “plate,” for “plates,”, “respective KGF and VEGF” for “keratin-14”, “levels” for “level”, “factors” for “factor”, “in” for “in respective”

Test [11] relates to TGF-β1. As to the kind of experiment: TGF-β1 RT-PCR. To be noted: human hair follicle dermal papilla cells, 24 hours, RT-PCR (mRNA); FIG. 7. The protocol:
as §3, with “4×10^5” for “5×10^5”, “plate,” for “plates,”, “TGF-β1” for “keratin-14”, “in” for “in respective”

For test [12], the system named is MSX2. As to the kind of experiment: MSX2 RT-PCR. The conditions noted are these: human hair follicle dermal papilla cells, 24 hours, RT-PCR (mRNA); FIG. 8. The protocol:
as §3, with “4×10^5” for “5×10^5”, “plate,” for “plates,”, “MSX2” for “keratin-14”, “in” for “in respective”

The subject of test [13] is melanocytes (B16F10 cell line). As to the kind of experiment: Melanin measurement assay. To be noted: 72 hours, intracellular melanin, absorbance 490 nm, FIGS. 9a, 9b. The protocol:
After melanocytes (B16F10 cell line) in 6-well plates were cultured in an incubator at 37° C. for 24 hours, the medium of each plate was removed and exchanged with a fresh medium, followed by treatment with the present peptide with different concentrations. After the incubation for 72 hours, the culture medium was removed, and the cells were taken off and then transferred into 1.5-ml tubes, followed by centrifugation at 13,000 rpm for 3 minutes. The supernatant was removed, and cell pellets were collected to observe melanin. Then, 150 μl of 2 M NaOH was added to the cell pellets to lyse intracellular melanin at 60° C. for 30 minutes. Then, 100 μl of the supernatant obtained from the lysis was added into each well of 96-well plates, and the absorbance was measured at 490 nm.

Test [14] has as its system MITF. Description: Melanogenesis-related gene RT-PCR: MITF. The conditions noted are these: B16F10 cell line, 72 hours, FIG. 10. The protocol:
(§4) Melanocytes (B16F10 cell line) were incubated on 6-well culture plates for 24 hours, and were treated with the peptides of the present invention with different concentrations. After RNA was extracted from the cells incubated for 72 hours, cDNA was prepared. PCR was performed by using respective primers specific to MITF and tyrosinase, which are involved in melanogenesis, and the expression changes of the respective genes were observed.

The subject of test [15] is tyrosinase. As to the kind of experiment: Melanogenesis-related gene RT-PCR: tyrosinase. The conditions noted are these: B16F10 cell line, 72 hours, FIG. 10. The protocol:
as §4

For test [16], the system named is TRP1. Description: Melanogenesis-related gene RT-PCR: TRP1. The conditions noted are these: B16F10 cell line, 72 hours, FIG. 10 legend.
Test [17] concerns MITF. Description: Melanogenesis-related protein western blotting: MITF. The conditions noted are these: B16F10 cell line, 72-hour incubation, FIG. 11. The protocol: (§5) Melanocytes (B16F10 cell line) were incubated on 6-well culture plates for 24 hours, and were treated with the peptides of the present invention with different concentrations. After 72-hour incubation, the cells were lysed, and the cells were subjected to western blotting using specific antibodies (two types, both from Santa Cruz Biotechnology, USA) to investigate the expression of MITF and tyrosinase, which are factors involved in melanogenesis.

The test system of test [18] is tyrosinase. Description: Melanogenesis-related protein western blotting: tyrosinase. To be noted: B16F10 cell line, 72-hour incubation, FIG. 11. The protocol: as §5

Ends that are not written are not given here.

Consider 2 sequences from patent US10344061B2, “Peptide exhibiting hair growth promoting activity and/or melanin production promoting activity and use thereof” (CAREGEN CO., LTD., priority 2016, dated 2019).

In the case of “ACTSSQLRSC (cysteine pairing not given here) [SEQ ID NO: 1]”, in test [1], the “growth of human hair follicle dermal papilla cells” value is “stimulated in a dose-dependent manner”. In test [2], the “activity of β-catenin” value is “increased”. In addition, the “phosphorylation level of GSK3β” value in test [3] is reported as “increased”. Also, in test [4], the “expression of PI3K” value was “increased”. In [5], the “phosphorylation of ERK” value is listed as “increased”. Further, the “expression of the anti-apoptotic protein Bcl-2” value in test [6] is given as “increased”. In addition, the “expression of the apoptosis-related protein Bax” value in test [7] is listed as “decreased”. In test [8], the “mRNA expression of keratin-14” value is listed as “increased”. The “expression of VEGF” value in test [9] is listed as “increased”. Moreover, the “expression of KGF” value in [10] is reported as “increased”. Moreover, the “expression of TGF-β1” value in [11] is recorded as “increased”. The “expression of MSX2” value in [12] is on record as “increased”. For the same sequence, the melanogenesis in melanocytes result in [13] is listed as “increased”. In addition, the “mRNA expression of MITF transcriptional factor” value in test [14] is “increased”. Further, the “mRNA expression of tyrosinase enzyme” value in test [15] was “increased”. For the same sequence, the “mRNA expression of TRP1” value in test [16] is recorded as “increases”. For the same sequence, in test [17], the “protein expression of MITF transcription factor” value is given as “increased”. Besides, the “protein expression of tyrosinase enzyme” value in test [18] is “increased”.
Consider KYLLVHRPYYRR [SEQ ID NO: 2], for which the “growth of human hair follicle dermal papilla cells” value in [1] is recorded as “stimulated in a dose-dependent manner”. Besides, the “activity of β-catenin” value in test [2] is listed as “increased”. The “phosphorylation level of GSK3β” value in test [3] was “increased”. In test [4], the “expression of PI3K” value is “increased”. Further, in test [5], the “phosphorylation of ERK” value is given as “increased”. Moreover, the “expression of the anti-apoptotic protein Bcl-2” value in test [6] is on record as “increased”. The “expression of the apoptosis-related protein Bax” value in test [7] is listed as “decreased”. Also, the “mRNA expression of keratin-14” value in test [8] is “increased”. In addition, in [13], the melanogenesis in melanocytes result is on record as “increased”.
